In patent publication US7091018B2, “Enzyme gene and its expression product” (Otsuka Pharmaceutical Co., Ltd., priority 2000, dated 2006):

Assays:
GFAT1L = molecular target: T1, GFAT1L (Homo sapiens, UniProt Q06210); assay: GFAT activity assay (spectrophotometric, GDH/APAD coupled): Km values and inhibition pattern of UDP-G1cNAc, GFAT1L; type: biochemical
T1 construct: made in house; host or cells: E. coli BL21-CodonPlus(DE3)RIL, pET23b vector; ultracentrifuged lysate supernatant, not purified
Procedure: (§1) GFAT activity was determined in accordance with Marshall et al. by means of spectrophotometry using a microplate (96 wells) (Journal of Biological Chemistry, vol. 266 No. 8, 4706–4712 (1991)) in the following manner. Glutamate produced by GFAT was allowed-to react with glutamate dehydrogenase (GDH), during which a reductive reaction of coenzyme APAD into APADH proceeded simultaneously. Changes in absorbance that accompany the reduction reaction of APAD to APADH are considered to represent GFAT activity.
(§2) Briefly, an appropriately diluted solution of a lyzate of GFAT1L- or GFAT1S-introduced E. coli (50 μl) was added to a substrate solution (200 μl) containing a sodium phosphate buffer (pH=7.5; 40 mM), potassium chloride (50 mM), EDTA (1.25 mM), APAD (0.3 mM), GDH (6 U/ml), glutamine (0–6 mM), and fructose-6-phosphate (F-6-P: 0–6 mM), and the mixture was allowed to react at 37° C. for 60 minutes. The absorbance change at 365 nm associated with the reaction was measured by use of a microplate reader.
(§3) In order to study the difference in terms of enzymatic behavior between GFAT1L and GFAT1S, Km values were determined using, as substrates, glutamine and F-6-P. Km values were calculated on the basis of :S/v−S plotting and v−v/S plotting, which were made with regard to the enzyme substrate concentration (S) and activity of the enzyme (reaction rate (v)). […]

GFAT1S = molecular target: T2, GFAT1S (Homo sapiens, UniProt Q06210); assay: GFAT activity assay (spectrophotometric, GDH/APAD coupled): Km values and inhibition pattern of UDP-G1cNAc, GFAT1S; type: biochemical
T2 construct: made in house; host or cells: E. coli BL21-CodonPlus(DE3)RIL, pET23b vector; ultracentrifuged lysate supernatant, not purified
Procedure: as §1, §2, §3

[1] = F-6-P as substrate, UDP-G1cNAc 30, 100 μM
[2] = glutamine as substrate, UDP-G1cNAc 10, 30, 100 μM

T1 sequence (Q06210 whole entry): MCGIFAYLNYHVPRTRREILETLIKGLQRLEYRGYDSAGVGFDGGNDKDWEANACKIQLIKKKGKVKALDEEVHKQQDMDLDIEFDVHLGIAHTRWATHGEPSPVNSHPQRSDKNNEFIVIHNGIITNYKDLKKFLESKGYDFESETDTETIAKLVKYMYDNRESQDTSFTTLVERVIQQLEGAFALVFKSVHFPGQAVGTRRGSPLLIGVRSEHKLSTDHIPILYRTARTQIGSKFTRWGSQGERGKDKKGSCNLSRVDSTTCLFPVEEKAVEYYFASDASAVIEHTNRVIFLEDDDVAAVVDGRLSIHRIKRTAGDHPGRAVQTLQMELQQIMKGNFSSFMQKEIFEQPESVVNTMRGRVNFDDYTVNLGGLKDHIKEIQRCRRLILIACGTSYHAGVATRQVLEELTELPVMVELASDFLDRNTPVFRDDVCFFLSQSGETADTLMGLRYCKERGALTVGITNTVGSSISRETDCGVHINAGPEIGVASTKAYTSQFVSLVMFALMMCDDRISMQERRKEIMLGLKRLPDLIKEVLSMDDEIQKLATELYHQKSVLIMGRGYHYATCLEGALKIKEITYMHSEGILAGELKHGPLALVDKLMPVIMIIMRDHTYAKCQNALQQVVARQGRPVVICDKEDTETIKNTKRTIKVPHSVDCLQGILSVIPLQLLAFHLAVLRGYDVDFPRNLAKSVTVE
T2 sequence (Q06210 1-681 isoform Q06210-2): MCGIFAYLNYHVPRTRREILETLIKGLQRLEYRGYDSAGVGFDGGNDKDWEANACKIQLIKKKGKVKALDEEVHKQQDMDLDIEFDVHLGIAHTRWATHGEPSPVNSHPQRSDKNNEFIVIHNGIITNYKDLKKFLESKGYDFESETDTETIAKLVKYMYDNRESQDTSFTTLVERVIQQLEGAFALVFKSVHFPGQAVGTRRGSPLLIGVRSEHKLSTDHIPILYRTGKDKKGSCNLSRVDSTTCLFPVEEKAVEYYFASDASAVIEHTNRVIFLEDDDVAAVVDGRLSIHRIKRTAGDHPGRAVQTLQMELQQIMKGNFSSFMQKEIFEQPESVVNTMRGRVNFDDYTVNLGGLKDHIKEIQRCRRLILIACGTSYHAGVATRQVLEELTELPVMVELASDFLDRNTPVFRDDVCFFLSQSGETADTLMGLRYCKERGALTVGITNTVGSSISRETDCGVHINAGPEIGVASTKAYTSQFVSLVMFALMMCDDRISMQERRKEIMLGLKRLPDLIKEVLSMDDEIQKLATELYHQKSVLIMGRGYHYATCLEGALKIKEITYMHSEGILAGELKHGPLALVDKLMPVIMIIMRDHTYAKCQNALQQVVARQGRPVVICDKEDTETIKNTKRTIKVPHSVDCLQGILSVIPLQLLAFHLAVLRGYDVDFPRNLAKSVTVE

In the case of CC(=O)N[C@H]1[C@@H](OP(=O)(O)OP(=O)(O)OC[C@H]2O[C@@H](n3ccc(=O)[nH]c3=O)[C@H](O)[C@@H]2O)O[C@H](CO)[C@@H](O)[C@@H]1O [UDP-G1cNAc, UDP-N-acetylglucosamine], the “Inhibition pattern of UDP-G1cNAc against GFAT activity, F-6-P” value (GFAT1L; [1]) is reported as “mixed inhibition”, the “Inhibition pattern of UDP-G1cNAc against GFAT activity, Glutamine” value (GFAT1L; [2]) is reported as “mixed inhibition” and the “Inhibition pattern of UDP-G1cNAc against GFAT activity, F-6-P” value (GFAT1S; [1]) is reported as “competitive inhibition”. For the same compound, the “Inhibition pattern of UDP-G1cNAc against GFAT activity, Glutamine” value (GFAT1S; [2]) was “un-competitive inhibition”.
